Among the data in patent US4772606A, “Purine derivatives” (Warner-Lambert Company, priority 1985, dated 1988) are IC50 values, retold here.

Broadly, the IC50 is the concentration that inhibits the measured activity by half.

Experiment [1] deals with T1, purine nucleoside phosphorylase (PNP-4) (Homo sapiens, UniProt P00491).
T1 construct: using hyman erythrocyte as the enzyme source; from tissue; host or cells: human erythrocytes
T1 sequence (P00491 1-289): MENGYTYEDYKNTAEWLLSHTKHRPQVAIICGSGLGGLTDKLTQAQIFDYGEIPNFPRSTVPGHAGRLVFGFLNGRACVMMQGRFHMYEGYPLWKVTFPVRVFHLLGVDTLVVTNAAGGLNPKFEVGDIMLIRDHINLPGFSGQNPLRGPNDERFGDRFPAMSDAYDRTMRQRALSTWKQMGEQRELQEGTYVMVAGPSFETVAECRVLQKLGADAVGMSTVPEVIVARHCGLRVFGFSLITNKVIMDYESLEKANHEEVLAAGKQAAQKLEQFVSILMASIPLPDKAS
As to the kind of experiment: purine nucleoside phosphorylase (PNP-4) enzyme assay, radiochemical, formation of [14C]-hypoxanthine from [14C]inosine. It counts as biochemical. The following applies: erythrocyte enzyme; [14C]inosine substrate.

The subject of another experiment is T-Cell. As to the kind of experiment: HTBA-1 T-cell cytotoxicity in the presence of 2'-deoxyguanosine. It counts as cell-based. Particulars: read-out: HTBA-1 T-Cell +dGuo (10 μM) IC50.

Where a name gives a salt, the structure may show the parent alone. Read-outs that look alike come from different tables or passages of the source. Where only a bound is given, the exact number is not on record here.

For the compound `Cc1cc(Cn2c(N)nc3c(=O)[nH]c(N)nc32)cs1` [Example 16Ak], the figures for the IC50 (in experiment [1]; in the experiment on T-Cell (+dGuo (10 μM))) were 0.63 µM and 2.8 µM, respectively.
On to `Cc1ccsc1Cn1c(N)nc2c(=O)[nH]c(N)nc21` [Example 9d, 8-Amino-9-[(3-methyl-2-thienyl)methyl]guanine], for which the IC50 is 4.05 µM in experiment [1] and 8.6 µM with T-Cell (+dGuo (10 μM)).
For `Nc1nc2c(nc(N)n2CCc2cccs2)c(=O)[nH]1` [Example 16Ac], in that order: 6.25 µM and 17.6 µM.
For `Cc1sccc1Cn1c(N)nc2c(=O)[nH]c(N)nc21` [Example 16Ad], in that order: 1.72 µM and 18.2 µM.
Turning to `Nc1nc2c(nc(N)n2Cc2ccco2)c(=O)[nH]1` [Example 9b, 8-Amino-9-(2-furanylmethyl)guanine monohydrochloride], the IC50 was 0.25 µM in experiment [1] and 2.57 µM in the experiment with T-Cell.
In turn, `Nc1nc2c(nc(N)n2Cc2ccccn2)c(=O)[nH]1` [Example 16Af] came in with a half-maximal inhibitory concentration (IC50) in experiment [1] of 4.6 µM.
For `CCc1ccc(Cn2cnc3c(=O)[nH]c(N)nc32)s1` [Example 3, 9-[(5-Ethyl-2-thienyl)methyl]guanine], the IC50 came out at 0.93 µM in experiment [1] and 4.15 µM with T-Cell (+dGuo (10 μM)).
For `Nc1nc2c(nc(N)n2Cc2ccsc2)c(=O)[nH]1` [Example 9c, 8-Amino-9-[(3-thienyl)methyl]guanine, monohydrochloride, monohydrate], in that order: 0.085 µM and 0.49 µM.
For `Nc1nc2c(nc(N)n2Cc2cc3ccccc3s2)c(=O)[nH]1` [Example 16Ag], in that order: 8.45 µM and more than 12.5 µM.
As to `Nc1nc2c(nc(N)n2Cc2cccs2)c(=O)[nH]1` [2 or 9a], the values for the IC50 (in experiment [1]; in the experiment with T-Cell) were 0.17 µM and 0.83 µM, respectively.
The compound `Nc1nc2c(nc(N)n2Cc2csc3ccccc23)c(=O)[nH]1` [Example 9e, 8-Amino-9-[(benzo[b]thien-3-yl)methyl]guanine] displayed an IC50 in experiment [1] of 140 µM.
On to `Nc1nc2c(ncn2Cc2cccnc2)c(=O)[nH]1` [Example 1, 9-[(3-Pyridinyl)methyl]guanine], for which the IC50 in experiment [1] amounted to 21.9 µM; in the experiment on T-Cell (+dGuo (10 μM)), 54.1 µM.
